Source: PubChem BioAssay AID1963839 (Molecular Pharmacology Branch, DTP, NCI, 2024)

Tested on: 817829-284-R-J1-PDC complex spheroid viability
Experiment: Anticancer human tumor 817829-284-R-J1-PDC patient-derived colon adenocarcinoma cell line growth inhibition [POLQ]
Settings: for IC50: curve of first compound; for viability, T/C: stronger effect = lower value; active means viability on the fitted dose curve at most 10% of control; inactive means the rest
Procedure, shortened: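 PDC + HUVEC + MSC complex spheroids; POLQ inhibitors ± partner drugs; top conc. at/near clinical Cmax, else 10 microM (SN-38 1 microM), half-log dilutions; 37 degrees C, 5% CO2.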

[1] = second compound 0.0316 µM, first compound 0.0316 µM
[2] = second compound 0.0316 µM, first compound 0.1 µM
[3] = second compound 0.0316 µM, first compound 0.316 µM
[4] = second compound 0.0316 µM, first compound 1 µM
[5] = second compound 0.0316 µM, first compound 3.16 µM
[6] = second compound 0.0316 µM, first compound 10 µM
[7] = second compound 0.1 µM, first compound 0.0316 µM
[8] = second compound 0.1 µM, first compound 0.1 µM
[9] = second compound 0.1 µM, first compound 0.316 µM
[10] = second compound 0.1 µM, first compound 1 µM
[11] = second compound 0.1 µM, first compound 3.16 µM
[12] = second compound 0.1 µM, first compound 10 µM
[13] = second compound 0.316 µM, first compound 0.0316 µM
[14] = second compound 0.316 µM, first compound 0.1 µM
[15] = second compound 0.316 µM, first compound 0.316 µM
[16] = second compound 0.316 µM, first compound 1 µM
[17] = second compound 0.316 µM, first compound 3.16 µM
[18] = second compound 0.316 µM, first compound 10 µM
[19] = second compound 1 µM, first compound 0.0316 µM
[20] = second compound 1 µM, first compound 0.1 µM
[21] = second compound 1 µM, first compound 0.316 µM
[22] = second compound 1 µM, first compound 1 µM
[23] = second compound 1 µM, first compound 3.16 µM
[24] = second compound 1 µM, first compound 10 µM
[25] = second compound 3.16 µM, first compound 0.0316 µM
[26] = second compound 3.16 µM, first compound 0.1 µM
[27] = second compound 3.16 µM, first compound 0.316 µM
[28] = second compound 3.16 µM, first compound 1 µM
[29] = second compound 3.16 µM, first compound 3.16 µM
[30] = second compound 3.16 µM, first compound 10 µM
[31] = second compound 10 µM, first compound 0.0316 µM
[32] = second compound 10 µM, first compound 0.1 µM
[33] = second compound 10 µM, first compound 0.316 µM
[34] = second compound 10 µM, first compound 1 µM
[35] = second compound 10 µM, first compound 3.16 µM
[36] = second compound 10 µM, first compound 10 µM
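Further: spheroids exposed to compounds for 7 days.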
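Wherever viability, T/C is given: 100% = DMSO vehicle-treated spheroids.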

CCc1cc2c(N3CCc4c(cc(Cn5ccnc5)cc4-c4cn(C)nc4C(F)(F)F)C3=O)cc(C)nc2c(OC)n1 + COC1C(OC(N)=O)C(O)C(Oc2ccc3c(O)c(NC(=O)c4ccc(O)c(CC=C(C)C)c4)c(=O)oc3c2C)OC1(C)C
1.72 µM: IC50 (second compound 0.1 µM)
2.3 µM: IC50 (second compound 10 µM)
3.38 µM: IC50 (second compound 3.16 µM)
3.1 µM: IC50 (second compound 0.0316 µM)
1.95 µM: IC50 (second compound 0.316 µM)
1.4 µM: IC50 (second compound 1 µM)
inactive: viability, T/C [1] 82.7% | viability, T/C [2] 82.2% | viability, T/C [3] 77.6% | viability, T/C [4] 61.9% | viability, T/C [5] 51.9% | viability, T/C [6] 27.7% | viability, T/C [7] 115% | viability, T/C [8] 86.8% | viability, T/C [9] 68.5% | viability, T/C [10] 55.6% | viability, T/C [11] 47.9% | viability, T/C [12] 34.2% | viability, T/C [13] 76.8% | viability, T/C [14] 81.9% | viability, T/C [15] 68.4% | viability, T/C [16] 61.7% | viability, T/C [17] 41.7% | viability, T/C [18] 35.8% | viability, T/C [19] 95.6% | viability, T/C [20] 86.8% | viability, T/C [21] 78% | viability, T/C [22] 52% | viability, T/C [23] 41.9% | viability, T/C [24] 34.7% | viability, T/C [25] 87.5% | viability, T/C [26] 74.2% | viability, T/C [27] 75.3% | viability, T/C [28] 58.1% | viability, T/C [29] 58.3% | viability, T/C [30] 31.4% | viability, T/C [31] 81.2% | viability, T/C [32] 85.3% | viability, T/C [33] 82.6% | viability, T/C [34] 65.6% | viability, T/C [35] 44.5% | viability, T/C [36] 31.7%

CCc1cc2c(N3CCc4c(cc(Cn5ccnc5)cc4-c4cn(C)nc4C(F)(F)F)C3=O)ccnc2c(OC)n1 + COC1C(OC(N)=O)C(O)C(Oc2ccc3c(O)c(NC(=O)c4ccc(O)c(CC=C(C)C)c4)c(=O)oc3c2C)OC1(C)C
3.3 µM: IC50 (second compound 0.1 µM)
5.17 µM: IC50 (second compound 0.316 µM)
inactive: viability, T/C [1] 79% | viability, T/C [2] 80.2% | viability, T/C [3] 84.7% | viability, T/C [4] 70% | viability, T/C [5] 49% | viability, T/C [6] 32.2% | viability, T/C [7] 90.3% | viability, T/C [8] 94% | viability, T/C [9] 83.2% | viability, T/C [10] 70.3% | viability, T/C [11] 51.6% | viability, T/C [12] 29.7% | viability, T/C [13] 82.8% | viability, T/C [14] 98.2% | viability, T/C [15] 77.7% | viability, T/C [16] 97.5% | viability, T/C [17] 57.8% | viability, T/C [18] 39.5% | viability, T/C [19] 95.7% | viability, T/C [20] 73% | viability, T/C [21] 97.3% | viability, T/C [22] 53.3% | viability, T/C [23] 54.9% | viability, T/C [24] 35.2% | viability, T/C [25] 72.8% | viability, T/C [26] 83.7% | viability, T/C [27] 89.4% | viability, T/C [28] 68.3% | viability, T/C [29] 63.7% | viability, T/C [30] 44.2% | viability, T/C [31] 104% | viability, T/C [32] 82.2% | viability, T/C [33] 75.2% | viability, T/C [34] 75.2% | viability, T/C [35] 57% | viability, T/C [36] 35.2%
2.92 µM: IC50 (second compound 0.0316 µM)
6.94 µM: IC50 (second compound 3.16 µM)
1.58 µM: IC50 (second compound 1 µM)
4.32 µM: IC50 (second compound 10 µM)

COc1cc2cc(C(=O)CCC(=O)O)sc2cc1OC + COC1C(OC(N)=O)C(O)C(Oc2ccc3c(O)c(NC(=O)c4ccc(O)c(CC=C(C)C)c4)c(=O)oc3c2C)OC1(C)C
> 10 µM: IC50 (second compound 0.0316 µM) | IC50 (second compound 0.1 µM) | IC50 (second compound 0.316 µM) | IC50 (second compound 1 µM) | IC50 (second compound 3.16 µM) | IC50 (second compound 10 µM)
inactive: viability, T/C [1] 81.3% | viability, T/C [2] 96.4% | viability, T/C [3] 83.3% | viability, T/C [4] 85.8% | viability, T/C [5] 94.6% | viability, T/C [6] 85.6% | viability, T/C [7] 97.8% | viability, T/C [8] 104% | viability, T/C [9] 89.7% | viability, T/C [10] 98.2% | viability, T/C [11] 49.2% | viability, T/C [12] 102% | viability, T/C [13] 75.7% | viability, T/C [14] 94.6% | viability, T/C [15] 88.9% | viability, T/C [16] 94.6% | viability, T/C [17] 112% | viability, T/C [18] 66.7% | viability, T/C [19] 88.2% | viability, T/C [20] 109% | viability, T/C [21] 71.1% | viability, T/C [22] 105% | viability, T/C [23] 83.9% | viability, T/C [24] 86.1% | viability, T/C [25] 85.5% | viability, T/C [26] 108% | viability, T/C [27] 98.7% | viability, T/C [28] 99.5% | viability, T/C [29] 110% | viability, T/C [30] 61.3% | viability, T/C [31] 106% | viability, T/C [32] 71.2% | viability, T/C [33] 90.9% | viability, T/C [34] 80.8% | viability, T/C [35] 117% | viability, T/C [36] 74.1%

COc1ccc([C@@H](O)c2cc(-c3ncnc4cc(N5CCOCC5)ccc34)c(F)cc2Cl)nn1 + COC1C(OC(N)=O)C(O)C(Oc2ccc3c(O)c(NC(=O)c4ccc(O)c(CC=C(C)C)c4)c(=O)oc3c2C)OC1(C)C
0.797 µM: IC50 (second compound 0.316 µM)
1.04 µM: IC50 (second compound 0.1 µM)
0.579 µM: IC50 (second compound 10 µM)
1.01 µM: IC50 (second compound 1 µM)
inactive: viability, T/C [1] 111% | viability, T/C [2] 61.9% | viability, T/C [3] 76.9% | viability, T/C [4] 44.5% | viability, T/C [5] 22.8% | viability, T/C [6] 11.9% | viability, T/C [7] 117% | viability, T/C [8] 79.6% | viability, T/C [9] 68.8% | viability, T/C [10] 55% | viability, T/C [11] 26.6% | viability, T/C [12] 18.5% | viability, T/C [13] 98.7% | viability, T/C [14] 86% | viability, T/C [15] 58.4% | viability, T/C [16] 53.9% | viability, T/C [17] 25.5% | viability, T/C [18] 18.9% | viability, T/C [19] 102% | viability, T/C [20] 88.8% | viability, T/C [21] 89.4% | viability, T/C [22] 49.2% | viability, T/C [23] 25.9% | viability, T/C [24] 18.9% | viability, T/C [25] 97.1% | viability, T/C [26] 86% | viability, T/C [27] 59.6% | viability, T/C [28] 34.2% | viability, T/C [29] 22.3% | viability, T/C [30] 16% | viability, T/C [31] 135% | viability, T/C [32] 62.2% | viability, T/C [33] 80% | viability, T/C [34] 43.9% | viability, T/C [35] 27.4% | viability, T/C [36] 16.2%
0.678 µM: IC50 (second compound 0.0316 µM)
0.497 µM: IC50 (second compound 3.16 µM)
